# Test results: patent US9452992B2 (priority 2011, dated 2016)
# Test system: VSV particles pseudotyped with EboV GP on CHO cells overexpressing NPC1
# Assay type: cell-based, Chinese hamster
row,Structure (SMILES),effect of NPC1 overexpression on antiviral activity
1,"COC(=O)c1ccc(COc2ccccc2CN2CCN(C(=O)CNC(=O)CC34CC5CC(CC(C5)C3)C4)CC2)cc1 [compound 3.48, methyl 4-((2-((4-(2-(2-((3r,5r,7r)-adamantan-1-yl)acetamido)acetyl)piperazin-1-yl)methyl)phenoxy)methyl)benzoate]",conferred resistance
2,"O=C(CC12CC3CC(CC(C3)C1)C2)NCC(=O)N1CCN(Cc2ccccc2)CC1 [3.0, 2-((3r,5r,7r)-adamantan-1-yl)-N-(2-(4-benzylpiperazin-1-yl)-2-oxoethyl)acetamide]",conferred resistance
